According to patent US9932637B2, “Genetic polymorphisms associated with cardiovascular disorders and drug response, methods of detection and uses thereof” (CELERA CORPORATION, priority 2003, dated 2018):
“And” between values parts separate entries of the source, which are not always exact repeats. Identical values can stand only once.

System: Scottish men with hypercholesterolemia (WOSCOPS)
Assay: WOSCOPS nested case-control: coronary events under pravastatin vs placebo by genotype (Tables 11, 13, 15)
Type: in vivo, human
Conditions: for Pravastatin Patients (%) / Pravastatin Patients n/total: WM
Text: Additionally, genetic markers identified as associated with acute coronary events or response to statin treatment for the prevention of coronary events in the CARE samples were also genotyped in a second sample set, the West of Scotland Coronary Prevention Study (WOSCOPS) sample set. […] Participants in the WOSCOPS study were 45-64 years of age and followed for an average of 4.9 years for coronary events. […] Controls were 1160 age and smoking status-matched unaffected patients. All individuals included in the study had signed a written informed consent form and the study protocol was approved by IRB s. DNA was extracted and genotyped as described above.
The data presented in Table 8 based on an association of genotypes with pravastatin efficacy of the CARE samples were further analyzed and presented in Table 13. The further analysis was performed to align the data obtained from the analysis of the CARE samples, which was a prospective study, to the analysis of the WOSCOP samples, which was a case/control study. Table 13 also presents an analysis of the association of genotypes with pravastatin efficacy in the WOSCOPs samples. Relative to the analysis performed on the data presented in Table 8, there are two significant differences to determine if the SNP influenced pravastatin efficacy. Data obtained from the CARE samples were separated by study design into two groups, those in the prospective study design group and those in the case/control study design group. The original care study contained 16 protocol defined cardiovascular disease defined endpoints and 150 other phenotypes. […] The control groups used to compare the data were also divided into two groups, the “all possible” control group and the “cleaner” control group. […] Because the participants in the WOSCOPs trial were all white males, only data obtained from white males in the CARE study were analysed. […] The data from the case/control cohorts were analysed using conditional logistic regression (as opposed to logistic regression used for the original anaylsis).
The anaylsis was refined as described for both Tables 13 and 14.

[1] = CAPN2 hCV781558, WOSCOPS (W) Case/Control, F&NF MI, listed as Pravastatin
[2] = CAPN2 hCV781558, WOSCOPS, Case/Control, F MI/SD/NF MI, listed as Pravastatin
[3] = CCL11 hCV7449808, WOSCOPS (W) Case/Control, F&NF MI
[4] = CCL11 hCV7449808, WOSCOPS, Case/Control, F MI/SD/NF MI
[5] = COL6A2 hCV2811372, WOSCOPS, Case/Control, F MI/SD/NF MI
[6] = COL6A2 hCV2811372, WOSCOPS, Case/Control, F MI/SD/NF MI, listed as Pravastatin
[7] = DDEF1 hCV7686234, WOSCOPS (W) Case/Control, F&NF MI
[8] = FGB hCV7429784, WOSCOPS, Case/Control, F MI/SD/NF MI
[9] = GAPD hCV8921288, WOSCOPS (W) Case/Control, F&NF MI
[10] = GAPD hCV8921288, WOSCOPS, Case/Control, F MI/SD/NF MI
[11] = HRC hCV11506744, 0 Rare Alleles, WOSCOPS Case/Control, F&NF MI, All Possible controls
[12] = HRC hCV11506744, 0 Rare Alleles, WOSCOPS Case/Control, F&NF MI, Cleaner controls
[13] = HRC hCV11506744, 1 Rare Allele, WOSCOPS Case/Control, F&NF MI, All Possible controls
[14] = HRC hCV11506744, 1 Rare Allele, WOSCOPS Case/Control, F&NF MI, Cleaner controls
[15] = HRC hCV11506744, WOSCOPS Case/Control, F&NF MI
[16] = HRC hCV11506744, WOSCOPS, Case/Control, F MI/SD/NF MI, listed as Pravastatin
[17] = IL1A hCV9546471, 0 Rare Alleles, WOSCOPS Case/Control, F&NF MI, All Possible controls
[18] = IL1A hCV9546471, 1 Rare Allele, WOSCOPS Case/Control, F&NF MI, All Possible controls
[19] = IL1A hCV9546471, WOSCOPS Case/Control, F&NF MI
[20] = IL1A hCV9546471, WOSCOPS, Case/Control, F MI/SD/NF MI
[21] = LRP3 hCV25594815, 0 Rare Alleles, WOSCOPS Case/Control, F&NF MI, All Possible controls
[22] = LRP3 hCV25594815, 0 Rare Alleles, WOSCOPS Case/Control, F&NF MI, Cleaner controls
[23] = LRP3 hCV25594815, 1 Rare Allele, WOSCOPS Case/Control, F&NF MI, All Possible controls
[24] = LRP3 hCV25594815, 1 Rare Allele, WOSCOPS Case/Control, F&NF MI, Cleaner controls
[25] = LRP3 hCV25594815, WOSCOPS Case/Control, F&NF MI
[26] = LRP3 hCV25594815, WOSCOPS, Case/Control, F MI/SD/NF MI
[27] = PON1 hCV2548962, 0 rare alleles, WOSCOPS Case/Control, Fatal & Nonfatal MI, Cleaner controls, White Males
[28] = PON1 hCV2548962, 1 rare allele, WOSCOPS Case/Control, Fatal & Nonfatal MI, Cleaner controls, White Males
[29] = PON1 hCV2548962, 2 rare alleles, WOSCOPS Case/Control, Fatal & Nonfatal MI, Cleaner controls, White Males
[30] = WOSCOPS, FCAR genotype GG, placebo group as reference, conditional logistic regression

## CC[C@H](C)C(=O)O[C@H]1C[C@H](O)C=C2C=C[C@H](C)[C@H](CC[C@@H](O)C[C@@H](O)CC(=O)O)[C@H]21 [pravastatin]
CAPN2 hCV781558, WOSCOPS (W) Case/Control, F&NF MI
  Pravastatin vs placebo odds ratio, 1 rare allele: 1.02
[1]
  2 Rare Alleles n/total, Pravastatin Patients: 10/41 and 10/39
  Pravastatin vs placebo odds ratio, 0 rare alleles: 0.52 and 0.51
  Pravastatin vs placebo odds ratio, 1 rare allele: 1.07
  Pravastatin vs placebo odds ratio, 2 rare alleles: 0.46 and 0.38
CAPN2 hCV781558, WOSCOPS, Case/Control, F MI/SD/NF MI
  Pravastatin vs placebo odds ratio, 1 rare allele: 1.08
[2]
  Pravastatin vs placebo odds ratio, 0 rare alleles: 0.46 and 0.45
  Pravastatin vs placebo odds ratio, 1 rare allele: 1.03
  Pravastatin vs placebo odds ratio, 2 rare alleles: 0.56 and 0.43
[3]
  2 Rare Alleles n/total, Pravastatin Patients: 10/24 and 10/22
  Pravastatin vs placebo odds ratio, 0 rare alleles: 0.67 and 0.65
  Pravastatin vs placebo odds ratio, 1 rare allele: 0.57 and 0.53
  Pravastatin vs placebo odds ratio, 2 rare alleles: 6.96 and 7.20
[4]
  Pravastatin vs placebo odds ratio, 0 rare alleles: 0.63 and 0.62
  Pravastatin vs placebo odds ratio, 1 rare allele: 0.50 and 0.46
  Pravastatin vs placebo odds ratio, 2 rare alleles: 8.57 and 9.95
[5]
  Pravastatin vs placebo odds ratio, 0 rare alleles: 0.39
  Pravastatin vs placebo odds ratio, 2 rare alleles: 1.04
[6]
  Pravastatin vs placebo odds ratio, 1 rare allele: 0.62 and 0.59
  Pravastatin vs placebo odds ratio, 2 rare alleles: 1.09
[7]
  2 Rare Alleles (%), Pravastatin Patients: (25.1%)
  2 Rare Alleles n/total, Pravastatin Patients: 42/167
  Pravastatin vs placebo odds ratio, 0 rare alleles: 0.45
  Pravastatin vs placebo odds ratio, 1 rare allele: 0.68
  Pravastatin vs placebo odds ratio, 2 rare alleles: 1.06
[8]
  2 rare alleles n/total (%), pravastatin patients: (50.0%)
  Pravastatin vs placebo odds ratio, 0 rare alleles: 0.63
  Pravastatin vs placebo odds ratio, 1 rare allele: 0.52
  Pravastatin vs placebo odds ratio, 2 rare alleles: 3.14
[9]
  2 Rare Alleles n/total, Pravastatin Patients: 10/26 and 10/23
  Pravastatin vs placebo odds ratio, 0 rare alleles: 0.54 and 0.50
  Pravastatin vs placebo odds ratio, 1 rare allele: 0.99 and 0.98
  Pravastatin vs placebo odds ratio, 2 rare alleles: 1.51 and 1.90
[10]
  Pravastatin vs placebo odds ratio, 0 rare alleles: 0.50 and 0.46
  Pravastatin vs placebo odds ratio, 1 rare allele: 0.88 and 0.89
  Pravastatin vs placebo odds ratio, 2 rare alleles: 1.56 and 1.92
[11]
  Pravastatin Patients (%): (23.3%)
  Pravastatin Patients n/total: 59/253
[12]
  Pravastatin Patients (%): (25.2%)
  Pravastatin Patients n/total: 59/234
[13]
  Pravastatin Patients (%): (18.0%)
  Pravastatin Patients n/total: 65/361
[14]
  Pravastatin Patients (%): (19.2%)
  Pravastatin Patients n/total: 65/338
[15]
  2 Rare Alleles (%), Pravastatin Patients: (27.6%)
  2 Rare Alleles n/total, Pravastatin Patients: 35/127 and 35/118
  Pravastatin vs placebo odds ratio, 0 rare alleles: 0.84 and 0.80
  Pravastatin vs placebo odds ratio, 1 rare allele: 0.49 and 0.46
  Pravastatin vs placebo odds ratio, 2 rare alleles: 1.08
HRC hCV11506744, WOSCOPS, Case/Control, F MI/SD/NF MI
  Pravastatin vs placebo odds ratio, 2 rare alleles: 1.04
[16]
  Pravastatin vs placebo odds ratio, 0 rare alleles: 0.85 and 0.80
  Pravastatin vs placebo odds ratio, 1 rare allele: 0.41 and 0.39
  Pravastatin vs placebo odds ratio, 2 rare alleles: 1.05
[17]
  Pravastatin Patients (%): (20.8%)
  Pravastatin Patients n/total: 77/370
[18]
  Pravastatin Patients (%): (24.2%)
  Pravastatin Patients n/total: 74/306
[19]
  2 Rare Alleles (%), Pravastatin Patients: (18.3%)
  2 Rare Alleles n/total, Pravastatin Patients: 11/60
  Pravastatin vs placebo odds ratio, 0 rare alleles: 0.52
  Pravastatin vs placebo odds ratio, 1 rare allele: 0.95
  Pravastatin vs placebo odds ratio, 2 rare alleles: 0.95
[20]
  Pravastatin vs placebo odds ratio, 0 rare alleles: 0.46 and 0.45
  Pravastatin vs placebo odds ratio, 1 rare allele: 0.91 and 0.85
  Pravastatin vs placebo odds ratio, 2 rare alleles: 0.94 and 0.98
[21]
  Pravastatin Patients (%): (24.1%)
  Pravastatin Patients n/total: 133/552
[22]
  Pravastatin Patients (%): (26.1%)
  Pravastatin Patients n/total: 133/509
[23]
  Pravastatin Patients (%): (14.5%)
  Pravastatin Patients n/total: 25/172
[24]
  Pravastatin Patients (%): (15.2%)
  Pravastatin Patients n/total: 25/164
[25]
  2 Rare Alleles (%), Pravastatin Patients: (27.3%)
  2 Rare Alleles n/total, Pravastatin Patients: 3/11
  Pravastatin vs placebo odds ratio, 0 rare alleles: 0.82 and 0.80
  Pravastatin vs placebo odds ratio, 1 rare allele: 0.33 and 0.31
  Pravastatin vs placebo odds ratio, 2 rare alleles: 1.46 and 1.21
[26]
  2 rare alleles n/total (%), pravastatin patients: (27.3%)
  Pravastatin vs placebo odds ratio, 0 rare alleles: 0.76 and 0.75
  Pravastatin vs placebo odds ratio, 1 rare allele: 0.29 and 0.26
  Pravastatin vs placebo odds ratio, 2 rare alleles: 2.40 and 1.80
[27]
  Pravastatin vs. Placebo Odds Ratio (95% CI), Patients with 0 Rare Alleles: 0.84 (0.60 to 1.16)
  n/total (%) cases, Pravastatin Patients, 0 Rare Alleles: 88/344 (25.6%)
[28]
  Pravastatin vs. Placebo Odds Ratio (95% CI), Patients with 1 Rare Allele: 0.58 (0.40 to 0.84)
  n/total (%) cases, Pravastatin Patients, 1 Rare Allele: 65/282 (23.1%)
[29]
  Pravastatin vs. Placebo Odds Ratio (95% CI), Patients with 2 Rare Alleles: 0.34 (0.14 to 0.82)
  n/total (%) cases, Pravastatin Patients, 2 Rare Alleles: 9/53 (17.0%)
WOSCOPS, CD6 hCV2553030, homozygous for the minor allele
  RR or OR of adverse coronary event, pravastatin vs placebo: 0.23
WOSCOPS, CD6 hCV2553030 genotype Het (TC)
  OR (odds ratio) of MI associated with Pravastatin: 0.71
WOSCOPS, CD6 hCV2553030 genotype Major hom (CC)
  OR (odds ratio) of MI associated with Pravastatin: 0.66
WOSCOPS, CD6 hCV2553030 genotype Minor hom (TT)
  OR (odds ratio) of MI associated with Pravastatin: 0.23
WOSCOPS, CD6 hCV2553030 recessive (TT)
  OR (odds ratio) of MI associated with Pravastatin: 0.23
WOSCOPS; CD6 hCV2553030 recessive TC + CC)ref
  OR (odds ratio) of MI associated with Pravastatin: 0.68
[30]
  OR of MI associated with Pravastatin, first of two OR sets printed: 0.66
  OR of MI associated with Pravastatin, second of two OR sets printed: 0.65
